From PubChem BioAssay AID1963439 (Molecular Pharmacology Branch, DTP, NCI, 2024) come the findings set out here.

Values joined by “and” are separate entries in the source; they are usually repeats but may differ in a detail not shown here. Identical values can stand only once. Bounds are passed on as bounds.

The assay has as its system NCI-H196 complex spheroids with HUVEC/MSC, growth % T/C. Put plainly: Anticancer human tumor NCI-H196 cell line growth inhibition [Asc].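 On all read-outs here: spheroids exposed to compound for 7 days before measurement.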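 On viability, T/C: 100% = DMSO vehicle control wells.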 Particulars: for viability, T/C: stronger effect = lower value. The procedure, abridged:
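Concentration series start at each agent's clinical Cmax, or at 10 microM when none is established, and drop in half-log steps; agents are applied alone or together to complex spheroids built with HUVEC and hMSC.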

Setting [1] is: curve of first compound, second compound 0.1 µM.
[2] abbreviates: curve of first compound, second compound 0.316 µM.
Setting [3] is: curve of first compound, second compound 1 µM.
[4] abbreviates: curve of first compound, second compound 3.16 µM.
[5] abbreviates: curve of first compound, second compound 10 µM.
Setting [6] is: second compound 0.1 µM, first compound 0.0316 µM.
[7] abbreviates: second compound 0.1 µM, first compound 0.1 µM.
Where [8] appears, read: second compound 0.1 µM, first compound 0.316 µM.
[9] abbreviates: second compound 0.1 µM, first compound 1 µM.
The mark [10] stands for this setting: second compound 0.316 µM, first compound 0.0316 µM.
[11] abbreviates: second compound 0.316 µM, first compound 0.1 µM.
The mark [12] stands for this setting: second compound 0.316 µM, first compound 0.316 µM.
Where [13] appears, read: second compound 0.316 µM, first compound 1 µM.
Setting [14] is: second compound 1 µM, first compound 0.0316 µM.
[15] abbreviates: second compound 1 µM, first compound 0.1 µM.
The mark [16] stands for this setting: second compound 1 µM, first compound 0.316 µM.
The mark [17] stands for this setting: second compound 1 µM, first compound 1 µM.
Where [18] appears, read: second compound 3.16 µM, first compound 0.0316 µM.
Setting [19] is: second compound 3.16 µM, first compound 0.1 µM.
The mark [20] stands for this setting: second compound 3.16 µM, first compound 0.316 µM.
[21] abbreviates: second compound 3.16 µM, first compound 1 µM.
Where [22] appears, read: second compound 10 µM, first compound 0.0316 µM.
[23] abbreviates: second compound 10 µM, first compound 0.1 µM.
[24] abbreviates: second compound 10 µM, first compound 0.316 µM.
The mark [25] stands for this setting: second compound 10 µM, first compound 1 µM.

On to `C#Cc1c(F)ccc2cc(O)cc(-c3ncc4c(N5CC6CCC(C5)N6)nc(OCC56CCCN5CC(F)C6)nc4c3F)c12` (stereo not drawn) + CCN1C(C(=O)NC23CCC(C(=O)O)(CC2)CC3)C(c2cccc(Cl)c2F)C2(C(=O)Nc3cc(Cl)ccc32)C12CCCCC2, for which the IC50 (commonly the point on the concentration scale where inhibition reaches its midpoint) (curve of first compound, second compound 0.03 µM) was > 10 µM; the half-maximal inhibitory concentration (IC50) (curve of first compound, second compound 0.0949 µM) is > 10 µM; the IC50 (curve of first compound, second compound 0.3 µM) was > 10 µM; the concentration for half-maximal inhibition (IC50) (curve of first compound, second compound 0.949 µM) is > 10 µM; the IC50 (curve of first compound, second compound 3 µM) was > 10 µM. For the same compound, the viability, T/C – broadly, the ratio of treated to control – was 96.4% (second compound 0.03 µM, first compound 0.0316 µM); 102% (second compound 0.03 µM, first compound 0.1 µM); 97.6% (second compound 0.03 µM, first compound 0.316 µM); 101% (second compound 0.03 µM, first compound 1 µM); 88.7% (second compound 0.03 µM, first compound 3.16 µM); 104% (second compound 0.03 µM, first compound 10 µM). Besides, the viability, T/C is 102% (second compound 0.0949 µM, first compound 0.0316 µM); 110% (second compound 0.0949 µM, first compound 0.1 µM); 106% (second compound 0.0949 µM, first compound 0.316 µM); 95.8% (second compound 0.0949 µM, first compound 1 µM); 110% (second compound 0.0949 µM, first compound 3.16 µM); 97.4% (second compound 0.0949 µM, first compound 10 µM). For the same compound, the viability, T/C is, setting by setting: (second compound 0.3 µM, first compound 0.0316 µM) 109%; (second compound 0.3 µM, first compound 0.1 µM) 108%; (second compound 0.3 µM, first compound 0.316 µM) 117%; (second compound 0.3 µM, first compound 1 µM) 96.9%; (second compound 0.3 µM, first compound 3.16 µM) 97.5%; (second compound 0.3 µM, first compound 10 µM) 99%. Also, the viability, T/C is 123% (second compound 0.949 µM, first compound 0.0316 µM); 123% (second compound 0.949 µM, first compound 0.1 µM); 115% (second compound 0.949 µM, first compound 0.316 µM); 93% (second compound 0.949 µM, first compound 1 µM); 115% (second compound 0.949 µM, first compound 3.16 µM); 103% (second compound 0.949 µM, first compound 10 µM). Further, the viability, T/C (second compound 3 µM, first compound 0.0316 µM) is 118%; the viability, T/C (second compound 3 µM, first compound 0.1 µM) was 123%; the viability, T/C (second compound 3 µM, first compound 0.316 µM) was 129%; the viability, T/C (second compound 3 µM, first compound 1 µM) is 114%; the viability, T/C (second compound 3 µM, first compound 3.16 µM) was 108%; the viability, T/C (second compound 3 µM, first compound 10 µM) was 114%.
As to `O=C(c1ccc(F)c(F)c1Nc1ccc(I)cc1F)N1CC(O)([C@@H]2CCCCN2)C1` + Cc1c(S(C)(=O)=O)c(-c2cc(F)cc(N3CCN(c4ccc(NS(=O)(=O)c5ccc(NC(CCN6CCC(C(=O)OCCCP(=O)(O)O)CC6)CSc6ccccc6)c(S(=O)(=O)C(F)(F)F)c5)cc4)CC3)c2)c(-c2ccc(Cl)cc2)n1C(C)C, the IC50 runs as follows: under setting [1], > 1 µM; under setting [2], > 1 µM; under setting [3], > 1 µM; under setting [4], > 1 µM; under setting [5], > 1 µM. The viability, T/C is, setting by setting: (second compound 0.1 µM, first compound 0.00316 µM) 103%; (second compound 0.1 µM, first compound 0.01 µM) 104%; under setting [6], 108%; under setting [7], 102%; under setting [8], 117%; under setting [9], 125%. Also, the viability, T/C was 99% (second compound 0.316 µM, first compound 0.00316 µM); 96.1% (second compound 0.316 µM, first compound 0.01 µM); 88.6% under setting [10]; 97.4% under setting [11]; 105% under setting [12]; 117% under setting [13]. Besides, the viability, T/C is 84.9% (second compound 1 µM, first compound 0.00316 µM); 89.1% (second compound 1 µM, first compound 0.01 µM); 93.9% under setting [14]; 106% under setting [15]; 108% under setting [16]; 117% under setting [17]. Further, the viability, T/C reads like this: (second compound 3.16 µM, first compound 0.00316 µM) 79.8%; (second compound 3.16 µM, first compound 0.01 µM) 87.3%; under setting [18], 87.8%; under setting [19], 85.4%; under setting [20], 102%; under setting [21], 106%. Also, the viability, T/C (second compound 10 µM, first compound 0.00316 µM) was 74.5%; the viability, T/C (second compound 10 µM, first compound 0.01 µM) is 85.8%; the viability, T/C under setting [22] is 81.2%; the viability, T/C under setting [23] was 83%; the viability, T/C under setting [24] is 90.6%; the viability, T/C under setting [25] was 97%.
As to `O=C(c1cc(Cc2n[nH]c(=O)c3ccccc23)ccc1F)N1CCN(C(=O)C2CC2)CC1` + Cc1c(S(C)(=O)=O)c(-c2cc(F)cc(N3CCN(c4ccc(NS(=O)(=O)c5ccc(NC(CCN6CCC(C(=O)OCCCP(=O)(O)O)CC6)CSc6ccccc6)c(S(=O)(=O)C(F)(F)F)c5)cc4)CC3)c2)c(-c2ccc(Cl)cc2)n1C(C)C, the IC50 is > 10 µM under setting [1]; > 10 µM under setting [2]; > 10 µM under setting [3]; > 10 µM under setting [4]; > 10 µM under setting [5]. In addition, the viability, T/C reads like this: under setting [6], 98%; under setting [7], 93.4%; under setting [8], 85.8%; under setting [9], 95.6%; (second compound 0.1 µM, first compound 3.16 µM) 99.8%; (second compound 0.1 µM, first compound 10 µM) 89.5%. For the same compound, the viability, T/C runs as follows: under setting [10], 88.8%; under setting [11], 102%; under setting [12], 103%; under setting [13], 88.3%; (second compound 0.316 µM, first compound 3.16 µM) 94.3%; (second compound 0.316 µM, first compound 10 µM) 87.1%. For the same compound, the viability, T/C under setting [14] is 91.4%; the viability, T/C under setting [15] is 96.9%; the viability, T/C under setting [16] was 88.2%; the viability, T/C under setting [17] was 89%; the viability, T/C (second compound 1 µM, first compound 3.16 µM) is 83.5%; the viability, T/C (second compound 1 µM, first compound 10 µM) was 81.2%. Moreover, the viability, T/C is, setting by setting: under setting [18], 89.9%; under setting [19], 83.6%; under setting [20], 84.5%; under setting [21], 86%; (second compound 3.16 µM, first compound 3.16 µM) 78.3%; (second compound 3.16 µM, first compound 10 µM) 66.3%. For the same compound, the viability, T/C is, setting by setting: under setting [22], 73.2%; under setting [23], 74.9%; under setting [24], 71.6%; under setting [25], 71.8%; (second compound 10 µM, first compound 3.16 µM) 74%; (second compound 10 µM, first compound 10 µM) 57.9%.
With `Cc1c(S(C)(=O)=O)c(-c2cc(F)cc(N3CCN(c4ccc(NS(=O)(=O)c5ccc(NC(CCN6CCC(C(=O)OCCCP(=O)(O)O)CC6)CSc6ccccc6)c(S(=O)(=O)C(F)(F)F)c5)cc4)CC3)c2)c(-c2ccc(Cl)cc2)n1C(C)C` (stereo not drawn), the viability, T/C is 94.5% [middle of 14 runs] (compound 0.1 µM); 92.9% [middle of 14 runs] (compound 0.316 µM); 91.4% [middle of 14 runs] (compound 1 µM); 82.2% [middle of 14 runs] (compound 3.16 µM); 75.3% [middle of 14 runs] (compound 10 µM). In addition, for the setting “compound alone, run of 09/27/2022”, the IC50 was > 10 µM.
On to `C#Cc1c(F)ccc2cc(O)cc(-c3ncc4c(N5CC6CCC(C5)N6)nc(OCC56CCCN5CC(F)C6)nc4c3F)c12` (stereo not drawn), for which the viability, T/C is, setting by setting: (compound 0.0316 µM) 94.6% and 101% and 103%; (compound 0.1 µM) 93.4% and 95.6% and 109%; (compound 0.316 µM) 93.4% and 92.8% and 118%; (compound 1 µM) 102% and 100% and 113%; (compound 3.16 µM) 101% and 92.6% and 108%; (compound 10 µM) 105% and 92.6% and 104%. The concentration for half-maximal inhibition (IC50) (curve of compound) is > 10 µM.
